Assay results from patent US11000033B2, “Ketone or oxime compound, and herbicide” (NISSAN CHEMICAL CORPORATION, priority 2014, dated 2021).

Tests used:
Type in all cases: in vivo
[1] = tested on: Lolium multiflorum Lam.; assay: Test Example 5: herbicidal effect by foliage application, plastic box (symbol K); conditions: 320 g/ha, 3 weeks after application
Outline: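 Sowing in sterilized diluvial soil, 14 days' greenhouse growth at 25° C. to 30° C., then uniform small-sprayer foliar application of aqueous emulsion dilution; plants scored three weeks afterwards.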

[2] = tested on: Avena fatua; assay: Test Example 4: herbicidal effect by soil treatment (symbol I); conditions: application herbicide amount 320 g/ha
Outline: (§1)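 Seeds were sown in sterilized diluvial soil, covered with about 1.5 cm of soil, and the soil surface was sprayed with a water-diluted emulsion of the compound at a predetermined rate. Plants grew in a greenhouse at 25° C. to 30° C.; effects were scored visually 3 weeks after application.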

[3] = tested on: Monochoria vaginalis; assay: Test Example 2: herbicidal activity, application during weed generation in submerged conditions (symbol C); conditions: Table 23; application herbicide amount 320 g/ha; grade 0-5 by criteria of Test Example 1
Outline: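 Read-out: herbicidal effect on each species rated on a visual scale 3 weeks after treatment. Plants were raised together from seed in flooded alluvial soil (4 cm water) at 25° C. to 30° C. and treated at one to two leaves by water-surface application of diluted emulsion.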

[4] = tested on: Echinochloa crus-galli var. crus-galli; assay: Test Example 3: herbicidal effect by foliage application, Wagner pot (symbol H); conditions: application herbicide amount 320 g/ha, Table 24
Outline: (§2)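 Scoring took place 3 weeks after application, using fixed criteria. Plants had been raised from seed for 14 days at 25 to 30 °C in submerged alluvial soil before a diluted emulsion of the test compound was sprayed uniformly on the leaves.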

[5] = tested on: rapeseed; assay: Test Example 5: effect on crop by foliage application, plastic box (symbol g); conditions: 320 g/ha, 3 weeks after application
Outline: (§3)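 Greenhouse culture at 25° C. to 30° C. followed spot-like sowing into sterilized diluvial soil, with seed covered by roughly 1.5 cm of soil.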

[6] = tested on: Abutilon theophrasti; assay: Test Example 4: herbicidal effect by soil treatment (symbol M); conditions: application herbicide amount 320 g/ha
Outline: as §1

[7] = tested on: Monochoria vaginalis; assay: Test Example 1: herbicidal activity, application before weed generation in submerged conditions (symbol C); conditions: application herbicide amount 320 g/ha
Outline: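 Compound emulsion was diluted to a set herbicide amount and applied to the water surface on the sowing day, into submerged (4 cm) alluvial-soil pots sown with mixed weed seeds and transplanted 2.5-leaf rice. Pots were held in a 25–30 °C greenhouse, and weeds were scored 0–5 by herbicidal ratio after 3 weeks.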

[8] = tested on: Leptochloa chinensis; assay: Test Example 3: herbicidal effect by foliage application, Wagner pot (symbol D); conditions: application herbicide amount 320 g/ha, Table 24
Outline: as §2

[9] = tested on: corn; assay: Test Example 5: effect on crop by foliage application, plastic box (symbol c); conditions: 320 g/ha, 3 weeks after application
Outline: as §3

[10] = tested on: Chenopodium album; assay: Test Example 4: herbicidal effect by soil treatment (symbol O); conditions: application herbicide amount 320 g/ha
Outline: as §1

[11] = tested on: soybean; assay: Test Example 5: effect on crop by foliage application, plastic box (symbol d); conditions: 320 g/ha, 3 weeks after application
Outline: as §3

Row | SMILES | K: Lolium multiflorum Lam., herbicidal effect grade [1] | Herbicidal effect grade, I: Avena fatua [2] | Herbicidal effect grade, C: Monochoria vaginalis [3] | H (Echinochloa crus-galli var. crus-galli) herbicidal effect grade [4] | g: rapeseed, effect on crop grade [5] | Herbicidal effect grade, M: Abutilon theophrasti [6] | C (Monochoria vaginalis) herbicidal effect grade [7] | D (Leptochloa chinensis) herbicidal effect grade [8] | c: corn, effect on crop grade [9] | Herbicidal effect grade, O: Chenopodium album [10] | d: soybean, effect on crop grade [11]
1 | CC(CC1CC(O)=C(c2c(C)cc(-n3cc(Cl)cn3)cc2C)C1=O)=NOCC(F)(F)F (stereo not drawn) [9-010] | 5 (Herbicidal ratio of 90% or more (almost completely withered)) | 4 (Herbicidal ratio of 70% or higher and lower than 90%) | 1 (Herbicidal ratio of 5% or higher and lower than 20%) | 5 (Herbicidal ratio of 90% or more (almost completely withered)) | 3 (Herbicidal ratio of 40% or higher and lower than 70%) | 0 (Herbicidal ratio of 5% or lower (almost no effect)) | 4 (Herbicidal ratio of 70% or higher and lower than 90%) | 5 (Herbicidal ratio of 90% or more (almost completely withered)) | 3 (Herbicidal ratio of 40% or higher and lower than 70%) | 0 (Herbicidal ratio of 5% or lower (almost no effect)) | 2 (Herbicidal ratio of 20% or higher and lower than 40%)
2 | CC#Cc1cc(C)c(C2=C(O)CC(CC(C)=NOCC(F)(F)F)C2=O)c(C)c1 (stereo not drawn) [9-011] | 5 (Herbicidal ratio of 90% or more (almost completely withered)) | 3 (Herbicidal ratio of 40% or higher and lower than 70%) | 4 (Herbicidal ratio of 70% or higher and lower than 90%) | 5 (Herbicidal ratio of 90% or more (almost completely withered)) | 4 (Herbicidal ratio of 70% or higher and lower than 90%) | 3 (Herbicidal ratio of 40% or higher and lower than 70%) | 4 (Herbicidal ratio of 70% or higher and lower than 90%) | 5 (Herbicidal ratio of 90% or more (almost completely withered)) | 5 (Herbicidal ratio of 90% or more (almost completely withered)) | 0 (Herbicidal ratio of 5% or lower (almost no effect)) | 2 (Herbicidal ratio of 20% or higher and lower than 40%)
3 | CC(CC1CC(OC(=O)COc2ccccc2)=C(c2c(C)cc(-n3cc(Cl)cn3)cc2C)C1=O)=NOCC(F)(F)F (stereo not drawn) [9-012] | 5 (Herbicidal ratio of 90% or more (almost completely withered)) | 0 (Herbicidal ratio of 5% or lower (almost no effect)) | 2 (Herbicidal ratio of 20% or higher and lower than 40%) | 5 (Herbicidal ratio of 90% or more (almost completely withered)) | 3 (Herbicidal ratio of 40% or higher and lower than 70%) | 0 (Herbicidal ratio of 5% or lower (almost no effect)) | 2 (Herbicidal ratio of 20% or higher and lower than 40%) | 5 (Herbicidal ratio of 90% or more (almost completely withered)) | 5 (Herbicidal ratio of 90% or more (almost completely withered)) | 0 (Herbicidal ratio of 5% or lower (almost no effect)) | 1 (Herbicidal ratio of 5% or higher and lower than 20%)
4 | Cc1cc(-n2cc(Cl)cn2)cc(C)c1C1=C(O)CC(CC(=NOCC(F)(F)F)C(C)C)C1=O (stereo not drawn) [9-014] | 4 (Herbicidal ratio of 70% or higher and lower than 90%) | 0 (Herbicidal ratio of 5% or lower (almost no effect)) | 0 (Herbicidal ratio of 5% or lower (almost no effect)) | 5 (Herbicidal ratio of 90% or more (almost completely withered)) | 2 (Herbicidal ratio of 20% or higher and lower than 40%) | 0 (Herbicidal ratio of 5% or lower (almost no effect)) | 2 (Herbicidal ratio of 20% or higher and lower than 40%) | 5 (Herbicidal ratio of 90% or more (almost completely withered)) | 5 (Herbicidal ratio of 90% or more (almost completely withered)) | 0 (Herbicidal ratio of 5% or lower (almost no effect)) | 0 (Herbicidal ratio of 5% or lower (almost no effect))
5 | COCCON=C(CC1CC(O)=C(c2c(C)cc(-n3cc(Cl)cn3)cc2C)C1=O)C(C)C (stereo not drawn) [9-022] | 2 (Herbicidal ratio of 20% or higher and lower than 40%) | 0 (Herbicidal ratio of 5% or lower (almost no effect)) | 0 (Herbicidal ratio of 5% or lower (almost no effect)) | 5 (Herbicidal ratio of 90% or more (almost completely withered)) | 0 (Herbicidal ratio of 5% or lower (almost no effect)) | 0 (Herbicidal ratio of 5% or lower (almost no effect)) | 0 (Herbicidal ratio of 5% or lower (almost no effect)) | 5 (Herbicidal ratio of 90% or more (almost completely withered)) | 2 (Herbicidal ratio of 20% or higher and lower than 40%) | 0 (Herbicidal ratio of 5% or lower (almost no effect)) | 0 (Herbicidal ratio of 5% or lower (almost no effect))
6 | CC#Cc1cc(C)c(C2=C(O)CC(CC(=NOCCOC)C(C)C)C2=O)c(C)c1 (stereo not drawn) [9-023] | 5 (Herbicidal ratio of 90% or more (almost completely withered)) | 2 (Herbicidal ratio of 20% or higher and lower than 40%) | 1 (Herbicidal ratio of 5% or higher and lower than 20%) | 5 (Herbicidal ratio of 90% or more (almost completely withered)) | 5 (Herbicidal ratio of 90% or more (almost completely withered)) | 0 (Herbicidal ratio of 5% or lower (almost no effect)) | 4 (Herbicidal ratio of 70% or higher and lower than 90%) | 5 (Herbicidal ratio of 90% or more (almost completely withered)) | 5 (Herbicidal ratio of 90% or more (almost completely withered)) | 0 (Herbicidal ratio of 5% or lower (almost no effect)) | 0 (Herbicidal ratio of 5% or lower (almost no effect))
